Measurements from US20130085283A1, “GERANYLGERANYLACETONE DERIVATIVES” (Coyote Pharmaceuticals, Inc., priority 2011, published 2013).

Assays:
[1] = test system: HSP70; test: HSP70 protein in rat brain lysates by Western blotting after oral dosing; assay type: in vivo
Procedure: The compounds tabulated below or vehicle controls were orally dosed at 12 mg/kg to Sprague-Dawley rats. Rat brain tissues were extracted in various time points after the oral dosing. Lysates were prepared from the harvested brain tissues. Western blotting analysis was done for the same protein amounts of these lysates, and western signals of HSP70 were detected by chemiluminescence and quantified in parallel with comparisons of those detected at time 0 hr. Western signals at time 0 hr were normalized as 100.

[2] = test system: GAPDH; test: Expression of heat shock proteins in vivo, rat brain mRNA by qPCR (control gene); details: time 0 = 100%
Procedure: (§1) GGA trans isomer in 5% Gum Arabic as an aqueous suspension formulation were orally dosed to Sprague-Dawley rats at 12 mg/Kg body weight. Rat brain tissues were extracted in various time points after the oral dosing. mRNA were prepared from those brain tissues extracted, and cDNA were produced. qPCR analysis was done by using primers specifically designed to detect mRNA of HSPs. GAPDH gene was used as a control to compare quantities of HSP cDNAs amplified by qPCR analysis. Amounts of cDNA quantified at time 0 are normalized as 100%, and relative amounts of cDNA compared with those at various time points are depicted in the tables below: […]

[3] = test system: HSP90; test: Expression of heat shock proteins in vivo, rat brain mRNA by qPCR; details: time 0 = 100%
Procedure: as §1

[4] = test system: HSP70; test: as above; details: time 0 = 100%
Procedure: as §1

[5] = test system: HSP27; test: as above; details: time 0 = 100%
Procedure: as §1

[6] = test system: HSP60; test: as above; details: time 0 = 100%
Procedure: as §1

[7] = 12 hr after oral 12 mg/Kg in 5% Gum Arabic
[8] = 24 hr after oral 12 mg/Kg in 5% Gum Arabic
[9] = 48 hr after oral 12 mg/Kg in 5% Gum Arabic
[10] = 96 hr after oral 12 mg/Kg in 5% Gum Arabic

For `CC(=O)CC/C=C(\C)CC/C=C(\C)CC/C=C(\C)CCC=C(C)C` (single isomer, unassigned) [GGA trans isomer, 5E,9E,13E-Geranylgeranyl acetone], the “Western signal of HSP70 in brain” value ([1]; 12 hr after oral 12 mg/kg, time 0 hr = 100, Vehicle 102%) was 115%, the “Western signal of HSP70 in brain” value ([1]; 48 hr after oral 12 mg/kg, time 0 hr = 100, Vehicle 105%) was 115% and the “Western signal of HSP70 in brain” value ([1]; 96 hr after oral 12 mg/kg, time 0 hr = 100, Vehicle 99%) was 114%. For the same compound, the “GAPDH relative amount of cDNA (control gene)” value (“GAPDH relative amount of cDNA” for short) [2, 7] was 96.93%, the “GAPDH relative amount of cDNA” value [2, 8] was 99.24% and the “GAPDH relative amount of cDNA” value [2, 9] was 100%. For the same compound, the “GAPDH relative amount of cDNA” value [2, 10] was 102.31%, the “HSP90 relative amount of cDNA” value [3, 7] was 107.69% and the “HSP90 relative amount of cDNA” value [3, 8] was 106.92%. For the same compound, the “HSP90 relative amount of cDNA” value [3, 9] was 105.38%, the “HSP90 relative amount of cDNA” value [3, 10] was 100.77% and the “HSP70 relative amount of cDNA” value [4, 7] was 118.46%. For the same compound, the “HSP70 relative amount of cDNA” value [4, 8] was 107.69%, the “HSP70 relative amount of cDNA” value [4, 9] was 106.15% and the “HSP70 relative amount of cDNA” value [4, 10] was 103.85%. The “HSP27 relative amount of cDNA” value [5, 7] was 115.38%, the “HSP27 relative amount of cDNA” value [5, 8] was 114.61% and the “HSP27 relative amount of cDNA” value [5, 9] was 116.15%. The “HSP27 relative amount of cDNA” value [5, 10] was 103.84%, the “HSP60 relative amount of cDNA” value [6, 7] was 113.84% and the “HSP60 relative amount of cDNA” value [6, 8] was 130.00%. The “HSP60 relative amount of cDNA” value [6, 9] was 116.92% and the “HSP60 relative amount of cDNA” value [6, 10] was 103.85%.
